# Laboratory results taken from ChEMBL document CHEMBL1201862, “PubChem BioAssay data set” (2004).
# Activity calls are given as the source filed them.
# Key:
# [1] = inhibitors of HIV Env-driven cell fusion, dose response, cherry-pick (AID 652057); format: functional, cell-based
# [2] = ZM109 Env clade C HIV-1 fusion inhibitors, dose response, HeLa effector, CEM target cells, luciferase, cherry-pick (AID 652058); format: functional, cell-based
# [3] = off-target signal loss in HeLa-CEM21 co-culture – HeLa F-luc CTL cells, cherry-picked, counter-screen for HIV-1 Env fusion inhibitor project, dose response (AID 652040); format: functional, cell-based;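 note: potency for signal decrease marking cytotoxic or nonspecific inhibition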
# [4] = inhibitors of clade B AD8 Env fusion, dose response, cell-based, cherry-pick (AID 652062); format: functional;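 note: luciferase signal from cell-cell fusion driven by HIV-1 clade B AD8 Env; potency is for inhibitors of fusion seen as a drop in luminescence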
# [5] = target: Induced myeloid leukemia cell differentiation protein Mcl-1 (Homo sapiens, UniProt Q07820); format: functional
# Sequence of Induced myeloid leukemia cell differentiation protein Mcl-1 (Q07820 whole entry): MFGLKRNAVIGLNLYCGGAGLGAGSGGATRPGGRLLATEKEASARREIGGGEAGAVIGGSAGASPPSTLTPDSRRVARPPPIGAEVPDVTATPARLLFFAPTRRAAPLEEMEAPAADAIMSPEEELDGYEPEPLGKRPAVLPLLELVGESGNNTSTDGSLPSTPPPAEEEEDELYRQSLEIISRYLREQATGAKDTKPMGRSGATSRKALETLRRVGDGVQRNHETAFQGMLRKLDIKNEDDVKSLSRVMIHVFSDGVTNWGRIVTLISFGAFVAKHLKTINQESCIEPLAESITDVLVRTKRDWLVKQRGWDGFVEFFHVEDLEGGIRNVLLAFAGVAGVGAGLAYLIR
# Genome polyprotein = Genome polyprotein (dengue virus type 2, UniProt P29990); assay: Dengue-2 NS5 methyltransferase inhibitors, primary screen, biochemical, confirmation dose response (AID 588689); format: functional
# Sequence of Genome polyprotein (P29990 2492-3391 limits assumed): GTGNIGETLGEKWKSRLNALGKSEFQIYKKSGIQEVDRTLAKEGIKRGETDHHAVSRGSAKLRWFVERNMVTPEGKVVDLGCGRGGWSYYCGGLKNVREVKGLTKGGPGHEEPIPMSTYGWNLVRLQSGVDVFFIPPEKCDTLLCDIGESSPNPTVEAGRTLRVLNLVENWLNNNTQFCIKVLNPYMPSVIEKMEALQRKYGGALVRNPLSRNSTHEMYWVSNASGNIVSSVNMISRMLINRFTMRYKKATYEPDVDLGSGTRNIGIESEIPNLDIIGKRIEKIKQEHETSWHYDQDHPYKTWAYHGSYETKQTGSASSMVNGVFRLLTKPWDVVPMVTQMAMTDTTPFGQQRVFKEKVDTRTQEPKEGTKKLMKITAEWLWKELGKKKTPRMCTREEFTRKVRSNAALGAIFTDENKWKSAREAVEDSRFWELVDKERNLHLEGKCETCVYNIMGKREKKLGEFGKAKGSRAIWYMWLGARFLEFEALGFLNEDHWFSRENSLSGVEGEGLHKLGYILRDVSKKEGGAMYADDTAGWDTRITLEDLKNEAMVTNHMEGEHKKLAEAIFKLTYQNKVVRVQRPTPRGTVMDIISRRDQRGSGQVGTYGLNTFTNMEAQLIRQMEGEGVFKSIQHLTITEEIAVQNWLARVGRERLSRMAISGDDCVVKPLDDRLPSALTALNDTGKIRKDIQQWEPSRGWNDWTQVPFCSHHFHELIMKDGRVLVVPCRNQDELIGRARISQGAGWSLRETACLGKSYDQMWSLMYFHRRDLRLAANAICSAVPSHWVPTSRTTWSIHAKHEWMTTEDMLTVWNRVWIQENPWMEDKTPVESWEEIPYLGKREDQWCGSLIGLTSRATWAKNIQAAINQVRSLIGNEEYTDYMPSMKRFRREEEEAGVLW
# Cytochrome P450 2D6 = Cytochrome P450 2D6 (Homo sapiens, UniProt P10635);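 note: CYP2D6 member of a cytochrome P450 panel assay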
# Sequence of Cytochrome P450 2D6 (P10635 whole entry): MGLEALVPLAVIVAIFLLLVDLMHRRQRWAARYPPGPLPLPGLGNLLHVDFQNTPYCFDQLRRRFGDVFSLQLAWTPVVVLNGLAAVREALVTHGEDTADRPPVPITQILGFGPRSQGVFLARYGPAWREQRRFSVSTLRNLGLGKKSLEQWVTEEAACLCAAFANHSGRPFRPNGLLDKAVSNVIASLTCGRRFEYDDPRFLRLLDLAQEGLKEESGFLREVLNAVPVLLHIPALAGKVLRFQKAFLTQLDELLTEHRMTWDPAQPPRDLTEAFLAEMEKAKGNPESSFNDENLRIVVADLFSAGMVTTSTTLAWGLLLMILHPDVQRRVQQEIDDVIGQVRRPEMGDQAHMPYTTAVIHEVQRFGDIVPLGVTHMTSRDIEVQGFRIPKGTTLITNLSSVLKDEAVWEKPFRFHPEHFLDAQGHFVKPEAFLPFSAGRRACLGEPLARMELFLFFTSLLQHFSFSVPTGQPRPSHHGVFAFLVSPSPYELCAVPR
# Cytochrome P450 1A2 = target: T1, Cytochrome P450 1A2 (Homo sapiens, UniProt P05177);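 note: PubChem cytochrome P450 panel assay, CYP1A2 panel member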
# T1 sequence (P05177 whole entry): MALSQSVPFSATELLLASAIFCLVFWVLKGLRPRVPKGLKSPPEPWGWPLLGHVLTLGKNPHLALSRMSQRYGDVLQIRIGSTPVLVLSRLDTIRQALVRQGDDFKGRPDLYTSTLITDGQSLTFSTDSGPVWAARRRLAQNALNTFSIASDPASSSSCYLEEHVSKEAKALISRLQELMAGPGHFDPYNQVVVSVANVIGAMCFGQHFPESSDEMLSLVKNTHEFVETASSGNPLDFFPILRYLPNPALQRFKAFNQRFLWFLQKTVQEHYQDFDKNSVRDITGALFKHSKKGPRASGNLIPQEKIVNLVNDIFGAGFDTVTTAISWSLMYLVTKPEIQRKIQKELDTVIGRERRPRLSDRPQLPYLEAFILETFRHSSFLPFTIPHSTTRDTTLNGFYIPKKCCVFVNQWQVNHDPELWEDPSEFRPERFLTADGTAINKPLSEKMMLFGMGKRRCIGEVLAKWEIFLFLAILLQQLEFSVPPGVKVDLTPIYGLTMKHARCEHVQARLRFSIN
# [6] = target: T2, Carboxy-terminal domain RNA polymerase II polypeptide A small phosphatase 1 (Homo sapiens, UniProt Q9GZU7); assay: inhibitors of CTDSP1, concentration-response testing, biochemical assay, absorbance-based, actives from ultra-high-throughput screening (AID 540297); format: functional
# T2 sequence (Q9GZU7 whole entry): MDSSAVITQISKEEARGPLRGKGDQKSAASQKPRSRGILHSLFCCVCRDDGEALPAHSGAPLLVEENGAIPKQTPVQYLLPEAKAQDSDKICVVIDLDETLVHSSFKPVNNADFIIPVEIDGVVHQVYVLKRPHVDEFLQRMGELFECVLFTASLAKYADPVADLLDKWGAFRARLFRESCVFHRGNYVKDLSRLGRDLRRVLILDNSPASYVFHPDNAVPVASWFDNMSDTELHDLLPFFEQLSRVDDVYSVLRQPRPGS
# [7] = target: DNA (cytosine-5)-methyltransferase 1 (Homo sapiens, UniProt P26358); assay: DNMT1 methyltransferase inhibitors, confirmation, biochemical, fluorescent molecular beacon (AID 602386); format: functional
# Sequence of DNA (cytosine-5)-methyltransferase 1 (P26358 whole entry): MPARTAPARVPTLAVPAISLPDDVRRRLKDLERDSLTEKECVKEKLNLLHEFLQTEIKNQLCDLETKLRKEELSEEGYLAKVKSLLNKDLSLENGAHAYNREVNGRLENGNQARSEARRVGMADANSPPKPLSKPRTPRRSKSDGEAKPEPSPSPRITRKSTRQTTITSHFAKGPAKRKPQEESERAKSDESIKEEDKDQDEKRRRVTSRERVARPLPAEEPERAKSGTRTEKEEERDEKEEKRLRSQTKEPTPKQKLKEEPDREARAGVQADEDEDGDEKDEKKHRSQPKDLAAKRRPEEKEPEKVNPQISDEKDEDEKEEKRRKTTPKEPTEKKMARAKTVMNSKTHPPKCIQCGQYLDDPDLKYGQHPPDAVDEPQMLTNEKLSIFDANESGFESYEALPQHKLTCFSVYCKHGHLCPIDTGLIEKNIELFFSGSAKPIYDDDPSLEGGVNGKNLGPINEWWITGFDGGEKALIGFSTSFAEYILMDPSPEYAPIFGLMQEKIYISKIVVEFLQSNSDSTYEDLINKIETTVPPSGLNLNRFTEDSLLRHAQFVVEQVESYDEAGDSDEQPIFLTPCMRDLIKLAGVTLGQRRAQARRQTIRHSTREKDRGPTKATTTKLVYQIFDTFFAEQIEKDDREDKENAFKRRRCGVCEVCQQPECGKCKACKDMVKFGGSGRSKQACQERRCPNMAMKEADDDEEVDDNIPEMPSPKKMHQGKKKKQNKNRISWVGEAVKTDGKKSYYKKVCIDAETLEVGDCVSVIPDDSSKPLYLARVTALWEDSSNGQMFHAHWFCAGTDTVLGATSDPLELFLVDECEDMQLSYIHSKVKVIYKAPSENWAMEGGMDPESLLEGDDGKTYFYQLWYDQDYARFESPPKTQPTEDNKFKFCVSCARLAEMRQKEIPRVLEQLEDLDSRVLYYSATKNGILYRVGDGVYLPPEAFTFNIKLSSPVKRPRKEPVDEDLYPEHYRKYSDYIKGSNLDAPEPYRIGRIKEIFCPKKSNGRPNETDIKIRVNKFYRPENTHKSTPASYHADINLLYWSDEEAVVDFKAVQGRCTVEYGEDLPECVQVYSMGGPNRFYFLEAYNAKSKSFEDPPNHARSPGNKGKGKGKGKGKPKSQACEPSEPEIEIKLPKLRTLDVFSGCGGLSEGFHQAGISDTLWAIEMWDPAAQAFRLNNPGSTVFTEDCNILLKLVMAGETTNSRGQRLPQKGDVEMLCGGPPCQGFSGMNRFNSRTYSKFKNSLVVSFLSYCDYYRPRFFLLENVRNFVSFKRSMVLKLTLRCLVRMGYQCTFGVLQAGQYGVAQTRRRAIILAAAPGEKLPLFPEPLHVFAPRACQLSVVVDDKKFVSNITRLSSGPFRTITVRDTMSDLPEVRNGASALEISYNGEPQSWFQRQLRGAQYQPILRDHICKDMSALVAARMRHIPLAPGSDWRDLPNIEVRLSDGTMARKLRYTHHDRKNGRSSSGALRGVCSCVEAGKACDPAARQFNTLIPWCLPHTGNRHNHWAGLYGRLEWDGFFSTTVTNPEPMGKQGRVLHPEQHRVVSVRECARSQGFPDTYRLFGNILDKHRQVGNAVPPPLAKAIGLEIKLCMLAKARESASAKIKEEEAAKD
# cells [8] = format: functional, cell-based
# [9] = target: T3, Trace amine-associated receptor 1 (Homo sapiens, UniProt Q96RJ0); assay: Fluorescence-based cell-based high throughput dose response assay to identify agonists of the human trace amine associated receptor 1 (TAAR1).; format: functional
# T3 sequence (Q96RJ0 whole entry): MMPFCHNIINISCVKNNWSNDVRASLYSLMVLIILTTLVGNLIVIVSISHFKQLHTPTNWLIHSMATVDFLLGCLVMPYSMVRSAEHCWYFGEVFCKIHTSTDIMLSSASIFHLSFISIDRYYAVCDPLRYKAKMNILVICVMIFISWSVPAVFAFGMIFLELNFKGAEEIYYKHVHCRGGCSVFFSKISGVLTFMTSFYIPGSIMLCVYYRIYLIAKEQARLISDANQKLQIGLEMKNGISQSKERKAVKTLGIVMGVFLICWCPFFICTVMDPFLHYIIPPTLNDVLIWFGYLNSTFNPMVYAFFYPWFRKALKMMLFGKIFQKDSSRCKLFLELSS
# [10] = target: T3, Trace amine-associated receptor 1; assay: Counterscreen for agonists of the human trace amine associated receptor 1 (hTAAR1): Fluorescence-based cell-based high throughput dose response assay to identify hTAAR1 agonist that also desensitize TAAR1 receptor response.; format: functional
# cells [11] = format: functional, cell-based; remark: listed apart in the source
compound,measurement,setting,value
COCCN(C(=O)COC(=O)C12CC3CC(CC(Cl)(C3)C1)C2)c1c(N)n(Cc2ccccc2)c(=O)[nH]c1=O,AC50,[1],4.61 µM (active)
same,AC50,[2],10.2 µM (active)
same,AC50,[3],10.7 µM (active)
same,AC50,[4],1.44 µM (active)
O=C(CCN1C(=O)S/C(=C\c2ccccc2)C1=O)Nc1ccc(S(=O)(=O)Nc2nccs2)cc1,IC50,[5],7.24 µM (active)
same,IC50,Genome polyprotein,> 100 µM (active)
same,AC50,Cytochrome P450 2D6,6.31 µM (inconclusive)
same,AC50,Cytochrome P450 1A2,31.6 µM (inconclusive)
O=CC(O)C1OC(=O)C(O)C1O (stereo not drawn),IC50,[6],4.05 µM (active)
same,IC50,[7],14.4 µM (active)
CCCCCCCCN1C(=O)[C@@H](CC(=O)NCCc2ccccc2OC)C[C@@]2(C(=O)OC)C1=C[C@H](C1CCCC1)O[C@@H]2C,IC50,cells [8],> 29.9 µM (inactive)
same,EC50,[9],3.22 µM (active)
same,IC50,[10],8.54 µM (active)
same,EC50,cells [11],> 29.9 µM (inactive)
CC(C)CCN(N=O)[C@@H](Cc1ccccc1)CN(N=O)[C@@H](Cc1ccccc1)CN(C)N=O,AC50,[1],5.26 µM (active)
same,AC50,[2],6.6 µM (active)
same,AC50,[3],34.7 µM (active)
same,AC50,[4],5.64 µM (active)
